Measured values as given in BindingDB's records for patent US11759530 (City of Hope, 2023).

What was measured:
Assay in all cases: No assay
[1] = target: Mitogen-activated protein kinase 14 (Homo sapiens, UniProt Q16539)
PIM2 = PIM2 (Homo sapiens, UniProt Q9P1W9)
[2] = target: Mitogen-activated protein kinase 11 (Homo sapiens, UniProt Q15759)
Mitogen-activated protein kinase 11, sequence (Q15759 whole entry): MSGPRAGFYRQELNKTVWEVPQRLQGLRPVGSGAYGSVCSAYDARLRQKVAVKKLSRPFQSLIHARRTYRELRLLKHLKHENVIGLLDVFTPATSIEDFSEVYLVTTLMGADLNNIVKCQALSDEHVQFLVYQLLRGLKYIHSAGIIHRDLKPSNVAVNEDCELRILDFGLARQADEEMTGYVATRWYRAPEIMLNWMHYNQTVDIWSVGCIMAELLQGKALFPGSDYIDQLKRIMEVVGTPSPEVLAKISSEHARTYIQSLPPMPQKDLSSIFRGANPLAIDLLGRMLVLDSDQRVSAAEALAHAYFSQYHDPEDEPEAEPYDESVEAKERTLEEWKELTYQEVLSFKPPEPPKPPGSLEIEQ

Mitogen-activated protein kinase 14, sequence (Q16539 whole entry): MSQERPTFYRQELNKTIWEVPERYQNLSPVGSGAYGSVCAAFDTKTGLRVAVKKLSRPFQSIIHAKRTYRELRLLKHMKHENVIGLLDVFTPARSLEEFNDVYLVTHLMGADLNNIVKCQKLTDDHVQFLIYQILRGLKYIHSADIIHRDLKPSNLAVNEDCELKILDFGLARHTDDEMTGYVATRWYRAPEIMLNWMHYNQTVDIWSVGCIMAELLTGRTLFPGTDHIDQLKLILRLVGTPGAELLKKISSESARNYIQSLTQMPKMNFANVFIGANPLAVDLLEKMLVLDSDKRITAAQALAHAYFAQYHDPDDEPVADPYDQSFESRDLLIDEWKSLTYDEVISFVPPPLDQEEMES
PIM2, sequence (Q9P1W9 whole entry): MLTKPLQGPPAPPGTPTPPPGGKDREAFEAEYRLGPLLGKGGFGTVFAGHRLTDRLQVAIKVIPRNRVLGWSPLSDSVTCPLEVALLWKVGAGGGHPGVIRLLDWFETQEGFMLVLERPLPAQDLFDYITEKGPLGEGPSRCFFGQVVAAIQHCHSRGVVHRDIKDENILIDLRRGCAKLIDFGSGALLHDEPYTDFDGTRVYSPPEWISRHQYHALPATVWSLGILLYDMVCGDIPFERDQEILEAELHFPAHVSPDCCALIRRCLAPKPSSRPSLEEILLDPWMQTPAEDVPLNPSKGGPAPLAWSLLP

SMILES | IC50 [1] [µM] | IC50 (PIM2) [µM] | IC50 [2] [µM]
NC(=O)c1ccc(-c2nc(-c3ccc4c(c3)OCCO4)c(-c3ccccn3)[nH]2)cc1 [US11759530, Compound Table1.3] | 12000 |  | 
O=c1c(O)c(-c2ccc(O)c(O)c2)oc2cc(O)c(O)c(O)c12 [US11759530, Compound Table1.8] |  | 3.45 | 
O=S(=O)(c1c(O)c(Cl)cc(Cl)c1Cl)c1c(O)c(Cl)cc(Cl)c1Cl [HL-7] | 0.13 |  | 0.55
